Measured values reported in publication PMC4490784, “Compensatory induction of MYC expression by sustained CDK9 inhibition via a BRD4-dependent mechanism” (eLife, 2015).

What was measured:
Experiment in all cases: KINOMEscan binding assay
SNRK = biological target: T1, SNRK (Homo sapiens, UniProt Q9NRH2); conditions: 1 µM i-CDK9; read-out: % Retention on Solid Support
T1 construct: purchased DiscoveRx KINOMEscan
How it was run: (§1)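 Binding, not catalytic activity, is measured: the compound competes with an active-site-directed ligand. Screening concentrations were 1 and 10 µM, applied across more than 400 kinases.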

KIT(V559D,T670I) = biological target: T2, KIT(V559D,T670I) (Homo sapiens, UniProt P10721, T670I/V559D); conditions: read-out: % Retention on Solid Support
T2 construct: purchased DiscoveRx KINOMEscan
How it was run: as §1

RET(M918T) = biological target: T3, RET(M918T) (Homo sapiens, UniProt P07949, M918T); conditions: read-out: % Retention on Solid Support
T3 construct: purchased DiscoveRx KINOMEscan
How it was run: as §1

BMX = biological target: T4, BMX (Homo sapiens, UniProt P51813); conditions: read-out: % Retention on Solid Support
T4 construct: purchased DiscoveRx KINOMEscan
How it was run: as §1

MEK6 = biological target: T5, MEK6 (Homo sapiens, UniProt P52564); conditions: read-out: % Retention on Solid Support
T5 construct: purchased DiscoveRx KINOMEscan
How it was run: as §1

PRKD1 = biological target: T6, PRKD1 (Homo sapiens, UniProt Q15139); conditions: read-out: % Retention on Solid Support
T6 construct: purchased DiscoveRx KINOMEscan
How it was run: as §1

EPHA4 = biological target: T7, EPHA4 (Homo sapiens, UniProt P54764); conditions: read-out: % Retention on Solid Support
T7 construct: purchased DiscoveRx KINOMEscan
T7 sequence (P54764 20-986): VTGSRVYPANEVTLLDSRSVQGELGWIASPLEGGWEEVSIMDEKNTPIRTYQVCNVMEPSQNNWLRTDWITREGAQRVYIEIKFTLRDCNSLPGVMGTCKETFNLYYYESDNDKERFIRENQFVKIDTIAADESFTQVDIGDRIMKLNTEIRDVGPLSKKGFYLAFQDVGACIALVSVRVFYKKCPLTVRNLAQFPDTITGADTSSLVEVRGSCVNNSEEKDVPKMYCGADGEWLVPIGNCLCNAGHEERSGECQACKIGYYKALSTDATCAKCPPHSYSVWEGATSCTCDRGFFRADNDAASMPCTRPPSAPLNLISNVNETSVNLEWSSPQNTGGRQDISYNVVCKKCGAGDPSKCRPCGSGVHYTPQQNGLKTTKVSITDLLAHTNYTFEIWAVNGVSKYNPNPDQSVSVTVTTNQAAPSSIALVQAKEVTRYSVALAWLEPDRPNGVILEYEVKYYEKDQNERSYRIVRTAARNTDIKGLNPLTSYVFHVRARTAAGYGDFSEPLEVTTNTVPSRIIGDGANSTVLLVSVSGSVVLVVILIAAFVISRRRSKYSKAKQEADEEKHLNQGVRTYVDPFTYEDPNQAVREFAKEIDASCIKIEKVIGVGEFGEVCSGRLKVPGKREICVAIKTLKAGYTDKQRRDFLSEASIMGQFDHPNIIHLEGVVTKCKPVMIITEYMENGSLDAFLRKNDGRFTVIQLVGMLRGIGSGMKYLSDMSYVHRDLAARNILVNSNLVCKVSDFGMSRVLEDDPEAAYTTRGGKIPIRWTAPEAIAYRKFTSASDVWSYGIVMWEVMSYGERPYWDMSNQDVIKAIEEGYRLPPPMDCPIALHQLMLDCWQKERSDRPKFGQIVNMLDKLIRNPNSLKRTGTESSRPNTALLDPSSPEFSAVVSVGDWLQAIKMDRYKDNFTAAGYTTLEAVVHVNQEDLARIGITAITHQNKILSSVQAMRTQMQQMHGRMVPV
How it was run: as §1

DCAMKL2 = biological target: T8, DCAMKL2 (Homo sapiens, UniProt Q8N568); conditions: read-out: % Retention on Solid Support
T8 construct: purchased DiscoveRx KINOMEscan
How it was run: as §1

NEK6 = biological target: T9, NEK6 (Homo sapiens, UniProt Q9HC98); conditions: read-out: % Retention on Solid Support
T9 construct: purchased DiscoveRx KINOMEscan
T9 sequence (Q9HC98 whole entry): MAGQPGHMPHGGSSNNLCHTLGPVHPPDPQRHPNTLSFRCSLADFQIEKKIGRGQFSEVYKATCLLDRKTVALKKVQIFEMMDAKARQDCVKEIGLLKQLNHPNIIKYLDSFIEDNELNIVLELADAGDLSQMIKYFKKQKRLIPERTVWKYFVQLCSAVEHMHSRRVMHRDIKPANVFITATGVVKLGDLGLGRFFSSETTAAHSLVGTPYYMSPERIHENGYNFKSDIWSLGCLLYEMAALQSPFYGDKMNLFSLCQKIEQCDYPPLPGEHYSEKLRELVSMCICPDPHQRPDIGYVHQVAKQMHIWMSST
How it was run: as §1

[1] = biological target: T10, RPS6KA4(Kin.Dom.1-N-terminal) (Homo sapiens, UniProt O75676); conditions: read-out: % Retention on Solid Support
T10 construct: RPS6KA4(Kin.Dom.1-N-terminal); purchased DiscoveRx KINOMEscan
How it was run: as §1

CAMK1D = biological target: T11, CAMK1D (Homo sapiens, UniProt Q8IU85); conditions: read-out: % Retention on Solid Support
T11 construct: purchased DiscoveRx KINOMEscan
How it was run: as §1

MARK4 = biological target: T12, MARK4 (Homo sapiens, UniProt Q96L34)
T12 construct: purchased DiscoveRx KINOMEscan
How it was run: as §1

ACVR1 = biological target: T13, ACVR1 (Homo sapiens, UniProt Q04771); conditions: read-out: % Retention on Solid Support
T13 construct: purchased DiscoveRx KINOMEscan
T13 sequence (Q04771 21-509): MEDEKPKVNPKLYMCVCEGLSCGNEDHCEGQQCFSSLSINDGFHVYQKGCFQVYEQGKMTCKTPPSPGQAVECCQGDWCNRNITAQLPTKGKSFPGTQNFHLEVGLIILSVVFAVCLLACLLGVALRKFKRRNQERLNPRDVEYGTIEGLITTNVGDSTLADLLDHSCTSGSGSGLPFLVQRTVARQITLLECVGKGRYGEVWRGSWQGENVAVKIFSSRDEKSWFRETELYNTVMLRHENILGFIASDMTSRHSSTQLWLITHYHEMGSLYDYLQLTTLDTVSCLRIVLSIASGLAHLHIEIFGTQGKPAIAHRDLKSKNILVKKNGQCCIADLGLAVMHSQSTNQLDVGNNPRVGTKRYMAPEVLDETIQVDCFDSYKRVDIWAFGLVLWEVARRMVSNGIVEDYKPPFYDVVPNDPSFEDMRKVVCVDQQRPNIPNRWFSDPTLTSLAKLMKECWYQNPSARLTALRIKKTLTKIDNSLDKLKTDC
How it was run: as §1

NEK4 = biological target: T14, NEK4 (Homo sapiens, UniProt P51957); conditions: 1 µM i-CDK9; read-out: % Retention on Solid Support
T14 construct: purchased DiscoveRx KINOMEscan
How it was run: as §1

ULK2 = biological target: T15, ULK2 (Homo sapiens, UniProt Q8IYT8); conditions: read-out: % Retention on Solid Support
T15 construct: purchased DiscoveRx KINOMEscan
How it was run: as §1

YANK2 = biological target: T16, YANK2 (Homo sapiens, UniProt Q9NY57); conditions: read-out: % Retention on Solid Support
T16 construct: purchased DiscoveRx KINOMEscan
How it was run: as §1

BMPR1A = biological target: T17, BMPR1A (Homo sapiens, UniProt P36894); conditions: read-out: % Retention on Solid Support
T17 construct: purchased DiscoveRx KINOMEscan
How it was run: as §1

AURKC = biological target: T18, AURKC (Homo sapiens, UniProt Q9UQB9); conditions: read-out: % Retention on Solid Support
T18 construct: purchased DiscoveRx KINOMEscan
How it was run: as §1

GAK = biological target: T19, GAK (Homo sapiens, UniProt O14976); conditions: read-out: % Retention on Solid Support
T19 construct: purchased DiscoveRx KINOMEscan
T19 sequence (O14976 whole entry): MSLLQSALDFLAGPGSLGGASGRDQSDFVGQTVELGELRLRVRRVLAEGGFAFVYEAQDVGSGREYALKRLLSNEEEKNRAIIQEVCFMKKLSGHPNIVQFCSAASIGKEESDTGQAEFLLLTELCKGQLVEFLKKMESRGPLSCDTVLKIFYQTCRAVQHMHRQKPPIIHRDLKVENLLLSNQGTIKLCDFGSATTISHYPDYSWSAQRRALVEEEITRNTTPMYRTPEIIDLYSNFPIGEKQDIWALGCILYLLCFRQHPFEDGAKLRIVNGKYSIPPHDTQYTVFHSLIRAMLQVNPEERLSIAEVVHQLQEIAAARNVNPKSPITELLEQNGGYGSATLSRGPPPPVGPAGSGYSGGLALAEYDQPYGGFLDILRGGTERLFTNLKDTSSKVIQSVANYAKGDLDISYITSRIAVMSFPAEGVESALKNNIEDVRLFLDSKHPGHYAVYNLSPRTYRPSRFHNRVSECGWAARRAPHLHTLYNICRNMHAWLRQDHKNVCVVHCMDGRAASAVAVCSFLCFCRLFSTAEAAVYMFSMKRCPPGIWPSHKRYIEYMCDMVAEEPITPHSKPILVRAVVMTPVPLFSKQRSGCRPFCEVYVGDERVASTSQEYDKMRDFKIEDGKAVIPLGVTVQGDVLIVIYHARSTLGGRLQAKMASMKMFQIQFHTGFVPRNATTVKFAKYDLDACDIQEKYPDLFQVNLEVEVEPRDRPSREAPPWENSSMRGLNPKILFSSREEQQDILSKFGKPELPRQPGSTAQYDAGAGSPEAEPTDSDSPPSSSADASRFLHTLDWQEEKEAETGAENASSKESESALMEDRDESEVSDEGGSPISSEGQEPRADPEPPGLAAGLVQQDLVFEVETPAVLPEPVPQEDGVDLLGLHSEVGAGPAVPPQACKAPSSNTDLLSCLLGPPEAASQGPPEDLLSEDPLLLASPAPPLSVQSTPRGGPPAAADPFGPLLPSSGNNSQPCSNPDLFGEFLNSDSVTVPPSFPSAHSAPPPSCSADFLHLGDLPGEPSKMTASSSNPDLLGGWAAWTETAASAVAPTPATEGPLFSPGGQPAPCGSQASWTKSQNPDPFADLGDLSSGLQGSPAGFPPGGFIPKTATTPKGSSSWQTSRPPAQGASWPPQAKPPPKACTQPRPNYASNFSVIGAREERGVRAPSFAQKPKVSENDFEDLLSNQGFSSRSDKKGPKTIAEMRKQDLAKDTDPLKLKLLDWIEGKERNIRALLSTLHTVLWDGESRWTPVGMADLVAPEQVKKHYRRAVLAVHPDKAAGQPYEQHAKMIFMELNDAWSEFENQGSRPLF
How it was run: as §1

QSK = biological target: T20, QSK (Homo sapiens, UniProt Q9Y2K2)
T20 construct: purchased DiscoveRx KINOMEscan
How it was run: as §1

CDK4-cyclinD1 = biological target: T21, CDK4-cyclinD1 (Homo sapiens, UniProt P11802); conditions: 1 µM i-CDK9; read-out: % Retention on Solid Support
T21 construct: purchased DiscoveRx KINOMEscan
How it was run: as §1

ROS1 = biological target: T22, ROS1 (Homo sapiens, UniProt P08922); conditions: read-out: % Retention on Solid Support
T22 construct: purchased DiscoveRx KINOMEscan
How it was run: as §1

LTK = biological target: T23, LTK (Homo sapiens, UniProt P29376); conditions: read-out: % Retention on Solid Support
T23 construct: purchased DiscoveRx KINOMEscan
T23 sequence (P29376 17-864): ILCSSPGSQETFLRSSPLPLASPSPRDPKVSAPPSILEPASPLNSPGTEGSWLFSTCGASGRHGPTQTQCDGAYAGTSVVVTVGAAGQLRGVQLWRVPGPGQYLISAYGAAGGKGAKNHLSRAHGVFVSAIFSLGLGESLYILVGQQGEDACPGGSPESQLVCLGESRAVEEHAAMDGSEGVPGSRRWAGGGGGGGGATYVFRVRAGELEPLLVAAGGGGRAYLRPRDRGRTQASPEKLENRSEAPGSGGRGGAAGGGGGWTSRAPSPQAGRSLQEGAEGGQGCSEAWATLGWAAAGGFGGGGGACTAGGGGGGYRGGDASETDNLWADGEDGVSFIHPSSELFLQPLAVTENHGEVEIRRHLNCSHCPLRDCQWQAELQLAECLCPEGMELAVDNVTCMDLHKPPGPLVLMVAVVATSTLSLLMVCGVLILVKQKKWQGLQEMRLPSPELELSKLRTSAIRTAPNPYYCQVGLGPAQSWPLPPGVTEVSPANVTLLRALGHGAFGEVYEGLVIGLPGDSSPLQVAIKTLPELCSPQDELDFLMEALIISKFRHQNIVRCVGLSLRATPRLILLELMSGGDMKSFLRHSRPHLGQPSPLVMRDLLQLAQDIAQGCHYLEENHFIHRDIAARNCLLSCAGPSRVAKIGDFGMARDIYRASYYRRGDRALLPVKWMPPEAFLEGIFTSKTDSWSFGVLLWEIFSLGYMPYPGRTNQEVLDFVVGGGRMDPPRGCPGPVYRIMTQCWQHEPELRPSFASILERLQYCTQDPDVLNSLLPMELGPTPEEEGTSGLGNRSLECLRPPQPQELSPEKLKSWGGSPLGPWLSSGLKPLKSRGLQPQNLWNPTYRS
How it was run: as §1

TGFBR2 = biological target: T24, TGFBR2 (Homo sapiens, UniProt P37173); conditions: read-out: % Retention on Solid Support
T24 construct: purchased DiscoveRx KINOMEscan
How it was run: as §1

PIP5K2C = biological target: T25, PIP5K2C (Homo sapiens, UniProt Q8TBX8); conditions: 1 µM i-CDK9; read-out: % Retention on Solid Support
T25 construct: purchased DiscoveRx KINOMEscan
How it was run: as §1

DMPK2 = biological target: T26, DMPK2 (Homo sapiens, UniProt Q6DT37); conditions: read-out: % Retention on Solid Support
T26 construct: purchased DiscoveRx KINOMEscan
How it was run: as §1

[2] = biological target: T27, ABL1(F317L)-phosphorylated (Homo sapiens, UniProt P00519, F317L); conditions: 1 µM i-CDK9; read-out: % Retention on Solid Support
T27 construct: purchased DiscoveRx KINOMEscan
How it was run: as §1

GRK4 = biological target: T28, GRK4 (Homo sapiens, UniProt P32298); conditions: read-out: % Retention on Solid Support
T28 construct: purchased DiscoveRx KINOMEscan
T28 sequence (P32298 whole entry): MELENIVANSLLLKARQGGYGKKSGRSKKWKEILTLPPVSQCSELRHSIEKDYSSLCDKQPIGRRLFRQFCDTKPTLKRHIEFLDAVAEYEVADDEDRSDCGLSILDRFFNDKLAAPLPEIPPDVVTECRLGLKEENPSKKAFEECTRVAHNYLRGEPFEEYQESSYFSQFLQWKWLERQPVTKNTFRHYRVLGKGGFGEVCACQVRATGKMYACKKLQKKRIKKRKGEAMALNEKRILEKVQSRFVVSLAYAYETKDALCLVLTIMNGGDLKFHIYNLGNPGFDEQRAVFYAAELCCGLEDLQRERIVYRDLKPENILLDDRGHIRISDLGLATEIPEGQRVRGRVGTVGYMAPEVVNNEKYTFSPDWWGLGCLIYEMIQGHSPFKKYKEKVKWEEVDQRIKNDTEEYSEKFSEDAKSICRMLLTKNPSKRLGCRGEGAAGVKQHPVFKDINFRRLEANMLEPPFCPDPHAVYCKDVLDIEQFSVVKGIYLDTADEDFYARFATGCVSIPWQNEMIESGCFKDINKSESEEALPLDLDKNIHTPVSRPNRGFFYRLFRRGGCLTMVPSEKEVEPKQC
How it was run: as §1

GRK1 = biological target: T29, GRK1 (Homo sapiens, UniProt Q15835); conditions: read-out: % Retention on Solid Support
T29 construct: purchased DiscoveRx KINOMEscan
T29 sequence (Q15835 whole entry): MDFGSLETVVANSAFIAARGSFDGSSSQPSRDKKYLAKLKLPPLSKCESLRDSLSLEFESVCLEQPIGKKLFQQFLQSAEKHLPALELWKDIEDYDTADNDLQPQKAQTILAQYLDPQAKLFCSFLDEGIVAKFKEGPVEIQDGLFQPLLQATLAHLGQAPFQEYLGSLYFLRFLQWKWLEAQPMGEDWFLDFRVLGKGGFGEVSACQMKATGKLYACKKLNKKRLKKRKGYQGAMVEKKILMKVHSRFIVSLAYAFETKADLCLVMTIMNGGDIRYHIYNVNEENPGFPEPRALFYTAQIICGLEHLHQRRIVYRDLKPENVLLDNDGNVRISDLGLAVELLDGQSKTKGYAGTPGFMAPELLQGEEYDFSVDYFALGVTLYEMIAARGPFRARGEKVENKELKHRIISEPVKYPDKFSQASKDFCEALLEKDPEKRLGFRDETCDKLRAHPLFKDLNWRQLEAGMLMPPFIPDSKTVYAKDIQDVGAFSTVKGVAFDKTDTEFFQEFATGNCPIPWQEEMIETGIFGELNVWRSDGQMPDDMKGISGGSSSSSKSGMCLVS
How it was run: as §1

STK39 = biological target: T30, STK39 (Homo sapiens, UniProt Q9UEW8); conditions: read-out: % Retention on Solid Support
T30 construct: purchased DiscoveRx KINOMEscan
How it was run: as §1

N[C@H]1CC[C@H](Nc2cc(-c3cccc(NCc4cccc(F)c4)n3)c(Cl)cn2)CC1 [i-CDK9, N2′-(trans-4-aminocyclohexyl)-5′-chloro-N6-(3-fluorobenzyl)-2,4′-bipyridine-2′,6-diamine]
remaining binding at 1 µM (SNRK): 64%
remaining binding at 1 µM (KIT(V559D,T670I); 1 µM i-CDK9): 95%
remaining binding at 10 µM (KIT(V559D,T670I); 10 µM i-CDK9): 100%
remaining binding at 1 µM (RET(M918T); 1 µM i-CDK9): 81%
remaining binding at 10 µM (RET(M918T); 10 µM i-CDK9): 73%
remaining binding at 1 µM (BMX; 1 µM i-CDK9): 96%
remaining binding at 10 µM (BMX; 10 µM i-CDK9): 81%
remaining binding at 1 µM (MEK6; 1 µM i-CDK9): 96%
remaining binding at 10 µM (MEK6; 10 µM i-CDK9): 100%
remaining binding at 1 µM (PRKD1; 1 µM i-CDK9): 55%
remaining binding at 10 µM (PRKD1; 10 µM i-CDK9): 20%
remaining binding at 1 µM (EPHA4; 1 µM i-CDK9): 100%
remaining binding at 10 µM (EPHA4; 10 µM i-CDK9): 89%
remaining binding at 1 µM (DCAMKL2; 1 µM i-CDK9): 100%
remaining binding at 10 µM (DCAMKL2; 10 µM i-CDK9): 65%
remaining binding at 1 µM (NEK6; 1 µM i-CDK9): 70%
remaining binding at 10 µM (NEK6; 10 µM i-CDK9): 100%
remaining binding at 1 µM ([1]; 1 µM i-CDK9): 48%
remaining binding at 10 µM ([1]; 10 µM i-CDK9): 84%
remaining binding at 1 µM (CAMK1D; 1 µM i-CDK9): 100%
remaining binding at 10 µM (CAMK1D; 10 µM i-CDK9): 100%
% Retention on Solid Support (MARK4; 1 µM i-CDK9): 100%
% Retention on Solid Support (MARK4; 10 µM i-CDK9): 100%
remaining binding at 1 µM (ACVR1; 1 µM i-CDK9): 100%
remaining binding at 10 µM (ACVR1; 10 µM i-CDK9): 100%
remaining binding at 1 µM (NEK4): 100%
remaining binding at 1 µM (ULK2; 1 µM i-CDK9): 100%
remaining binding at 10 µM (ULK2; 10 µM i-CDK9): 100%
remaining binding at 1 µM (YANK2; 1 µM i-CDK9): 90%
remaining binding at 10 µM (YANK2; 10 µM i-CDK9): 100%
remaining binding at 1 µM (BMPR1A; 1 µM i-CDK9): 63%
remaining binding at 10 µM (BMPR1A; 10 µM i-CDK9): 100%
remaining binding at 1 µM (AURKC; 1 µM i-CDK9): 100%
remaining binding at 10 µM (AURKC; 10 µM i-CDK9): 71%
remaining binding at 1 µM (GAK; 1 µM i-CDK9): 100%
remaining binding at 10 µM (GAK; 10 µM i-CDK9): 89%
% Retention on Solid Support (QSK; 1 µM i-CDK9): 7.4%
% Retention on Solid Support (QSK; 10 µM i-CDK9): 92%
remaining binding at 1 µM (CDK4-cyclinD1): 100%
remaining binding at 1 µM (ROS1; 1 µM i-CDK9): 98%
remaining binding at 10 µM (ROS1; 10 µM i-CDK9): 100%
remaining binding at 1 µM (LTK; 1 µM i-CDK9): 92%
remaining binding at 10 µM (LTK; 10 µM i-CDK9): 100%
remaining binding at 1 µM (TGFBR2; 1 µM i-CDK9): 87%
remaining binding at 10 µM (TGFBR2; 10 µM i-CDK9): 100%
remaining binding at 1 µM (PIP5K2C): 100%
remaining binding at 1 µM (DMPK2; 1 µM i-CDK9): 100%
remaining binding at 10 µM (DMPK2; 10 µM i-CDK9): 100%
remaining binding at 1 µM [2]: 100%
remaining binding at 1 µM (GRK4; 1 µM i-CDK9): 100%
remaining binding at 10 µM (GRK4; 10 µM i-CDK9): 100%
remaining binding at 1 µM (GRK1; 1 µM i-CDK9): 95%
remaining binding at 10 µM (GRK1; 10 µM i-CDK9): 100%
remaining binding at 1 µM (STK39; 1 µM i-CDK9): 100%
remaining binding at 10 µM (STK39; 10 µM i-CDK9): 77%
